According to US4562190A, “Benzothiazolone derivatives, processes for preparation thereof and pharmaceutical compositions comprising the same” (Fujisawa Pharmaceutical Co., Ltd., priority 1983, dated 1985):
Like-named read-outs stand apart in the source and are kept apart here. One block for each molecule: values may come before it.

What was measured:
blood pressure = assay: Antihypertensive activity (DOCA-treated, uninephrectomized rats, oral); format: in vivo, male Wistar rats; details: dose 1.0 mg/kg, DOCA/saline uninephrectomized rats, mean blood pressure 150-200 mmHg
Procedure: Five-week old male Wistar rats were uninephrectomized under anesthesia. Deoxycorticosterone acetate (DOCA) (30 mg/kg), suspended in peanut oil, was injected subcutaneously twice a week and 1% saline was substituted for the drinking water. Animals with mean blood pressure 150-200 mmHg were used for experiment between 5 and 7 weeks after surgery.
The test compound was administered orally. Blood pressure was measured at the femoral artery by means of a pressure transducer and recorded as electrically integrated values of mean arterial pressure.

[1] = system: left ventricular pressure (dp/dt max) and heart rate; assay: Cardiotonic activity (anesthetized dogs, i.v.); format: in vivo, Mongrel dogs; details: dosage 1 mg/kg (printed "1."), injected into femoral vein; pentobarbital-anesthetized dogs; vs predosing period
Procedure: Mongrel dogs of either sex were anesthetized with sodium pentobarbital, 35 mg/kg, i.p.. The animals were allowed to breathe spontaneously. The left carotid artery was isolated and a catheter (USCI, #8F) filled with heparinized saline was inserted and advanced into the left ventricle. The catheter was connected to a pressure transducer (Nihonkohden, MPU-0.5A) to measure the left ventricular pressure, from which dp/dt max was derived by analog computing. To measure the systemic blood pressure the left femoral artery was cannulated. The blood pressure pulses was used to trigger a heart rate meter. Another catheter was positioned in the vena cave through right femoral vein for injection of drug. Systemic blood pressure, left ventricular pressure, dp/dt max and heart rate were recorded simultaneously on a polygram (Nihonkohden, RJG-4008).
Test compound was dissolved in dimethyl sulfoxide (0.04 ml/kg) and injected into the femoral vein. The parameters after dosing were compared with those during the predosing period.
Test results were represented in terms of percentage of dp/dt max changes (dp/dt M.C.) and percentage of heart rate changes (H.R.C.) calculated by following formulae. [formula]

platelet aggregation = assay: Inhibitory activity on platelet aggregation; format: cell-based; details: Oryctolagus cuniculus, rabbit platelet rich plasma, 37° C.
Procedure: Platelet rich plasma (PRP) which contains 6.5-7.5×10^8 platelet/ml was prepared from rabbit blood. To the 200 μl of PRP, 5 μl of calcium chloride (1mM) and 50 μl of pH 7.4 Tris-acetate solution (5 mM) containing 120mM NaCl and test compound was added successively, and then stirred for 2 min. at 37° C. To the solution 5 μl of adenosine diphosphate (ADP) (2.5 μM) or collagen (2.5 μg/ml) was added as an aggregation inducer. Aggregation was measured by using an aggregometer (NKK HEMA TRACER 1).

SMILES: CC1CC(=O)NN=C1c1ccc2sc(=O)n(C)c2c1 (centres unmarked) [test compound .circle.1, 3-Methyl-5-(4-methyl-6-oxo-1,4,5,6-tetrahydro-3-pyridazinyl)benzothiazolone]
Effect Max (mean ratio of maximum decrease of blood pressure) (blood pressure): 63%

SMILES: CCOC(=O)Cn1c(=O)sc2ccc(C3=NNC(=O)CC3C)cc21 (centres unmarked) [test compound .circle.2, 3-Ethoxycarbonylmethyl-5-(4-methyl-6-oxo-1,4,5,6-tetrahydro-3-pyridazinyl)benzothiazolone]
H.R.C. (percentage of heart rate changes) [1]: 22%
dp/dt M.C. (percentage of dp/dt max changes) [1]: 63%

IC50 (platelet aggregation; inducer ADP (2.5 μM), read-out: ID50, ADP): 61 nM
IC50 (platelet aggregation; inducer collagen (2.5 μg/ml), read-out: ID50, Collagen): 35 nM
SMILES: CC1CC(=O)NN=C1c1ccc2sc(=O)[nH]c2c1 (centres unmarked) [test compound .circle.3, 5-(4-Methyl-6-oxo-1,4,5,6-tetrahydro-3-pyridazinyl)benzothiazolone]
